Values after ≈ are worked out from the molar mass of the structure shown. Values belong to the compound of their own block, whether it stands above or below them.
Assays:
[1] = Half life in human; format: ADME
[2] = Drug recovery in feces of po dosed human by LC-MS/MS analysis; format: ADME, organism-based; conditions: faeces, read-out: Drug recovery
[3] = Drug level in human Plasma treated with [14C]-KAE609 assessed metabolite formation; format: ADME, cell-free
Plasmodium falciparum [4] = assay: Antimalarial activity against Plasmodium falciparum asexual blood stage form infected in human assessed as parasite clearance half-life at 10 mg, po after 8 days; format: functional, organism-based
[5] = AUC (0 to infinity) in human at 25 to 1200 mg, po measured up to 480 hrs by HPLC-MS/MS analysis; format: ADME, organism-based; conditions: in vivo
[6] = Half life in Beagle dog at 1 mg/kg, iv by LC-MS analysis; format: ADME, organism-based, Canis lupus familiaris; conditions: in vivo
[7] = Plasma clearance in monkey at 1 mg/kg, iv by LC-MS analysis; format: ADME, organism-based, Macaca mulatta; conditions: rhesus monkey
Plasmodium falciparum [8] = assay: Antimalarial activity against mefloquine/chloroquine-resistant Plasmodium falciparum asexual blood stage forms assessed as parasite clearance time at 10 times EC50; format: functional
[9] = Cmax in human at 25 to 1200 mg, po measured up to 480 hrs by HPLC-MS/MS analysis; format: ADME, organism-based; conditions: in vivo
[10] = Half life in human at 25 to 1200 mg, po measured up to 480 hrs by HPLC-MS/MS analysis; format: ADME, organism-based; conditions: in vivo
Plasmodium falciparum [11] = assay: Antimalarial activity against mefloquine/chloroquine-resistant Plasmodium falciparum asexual blood stage forms; format: functional, organism-based
Plasmodium falciparum [12] = assay: Antimalarial activity against Plasmodium falciparum asexual blood stage form infected in human assessed as reduction in parasite growth after 10 to 22 days; format: functional
Plasmodium falciparum [13] = assay: Antimalarial activity against Plasmodium falciparum 3D7 infected in qd administered po dosed NOD-scid IL-2Rgamma null mouse assessed as reduction in parasite growth after 3 day by flow cytometric analysis; format: functional
Plasmodium falciparum [14] = assay: Antimalarial activity against Plasmodium falciparum asexual blood stage form infected in human assessed as parasite clearance half-life at 150 mg, po after 8 days; format: functional, organism-based
[15] = Half life in monkey at 1 mg/kg, iv by LC-MS analysis; format: ADME, organism-based, Macaca mulatta; conditions: rhesus monkey, in vivo
Plasmodium falciparum [16] = assay: Antimalarial activity against Plasmodium falciparum asexual blood stage form infected in human assessed as reduction in parasite growth at 400 mg, po measured on day 14 by blood smear based assay relative to control; format: functional; parameters: scale not given: the % may be the effect or the level left
Plasmodium falciparum [17] = assay: Antimalarial activity against Plasmodium falciparum asexual blood stage form infected in human assessed as reduction in parasite growth at 400 mg, po measured on day 14 by qPCR analysis relative to control; format: functional; parameters: scale not given: the % may be the effect or the level left
[18] = Plasma clearance in Beagle dog at 1 mg/kg, iv by LC-MS analysis; format: ADME, organism-based, Canis lupus familiaris
Plasmodium falciparum [19] = assay: Antimalarial activity against Plasmodium falciparum 3D7 infected in bid administered po dosed NOD-scid IL-2Rgamma null mouse assessed as reduction in parasite growth after 3 day by flow cytometric analysis; format: functional
Plasmodium falciparum [20] = assay: Antimalarial activity against Plasmodium falciparum NF54 liver stage form schizonts infected in human hepatocytes assessed as EEF diameter; format: functional, organism-based
Plasmodium falciparum [21] = assay: Antimalarial activity against mefloquine/chloroquine-resistant Plasmodium falciparum asexual blood stage forms assessed as parasite clearance time at 100 times EC50; format: functional
[22] = Inhibition of Plasmodium vivax DHODH expressed in Escherichia coli using L-dihydroorotate as substrate
[23] = AUC in Beagle dog at 1 mg/kg, iv by LC-MS analysis; format: ADME, organism-based, Canis lupus familiaris; conditions: in vivo
[24] = AUC in monkey at 1 mg/kg, iv by LC-MS analysis; format: ADME, organism-based, Macaca mulatta; conditions: rhesus monkey, in vivo
[25] = Tmax in human at 25 to 1200 mg, po measured up to 480 hrs by HPLC-MS/MS analysis; format: ADME, organism-based; conditions: in vivo
[26] = target: Voltage-gated inwardly rectifying potassium channel KCNH2 (Homo sapiens, UniProt Q12809); assay: Inhibition of human ERG by patch clamp method
Plasmodium falciparum [27] = assay: Antimalarial activity against Plasmodium falciparum asexual blood stage form infected in human assessed as parasite clearance half-life; format: functional, organism-based
Plasmodium falciparum [28] = assay: Antimalarial activity against schizont stage of Plasmodium falciparum clinical isolate; format: functional, organism-based
Plasmodium vivax [29] = assay: Antimalarial activity against Plasmodium vivax infected in human erythrocytes assessed as reduction in [3H]-hypoxanthine incorporation incubated for 40 hrs followed by addition of [3H]-hypoxanthine and measured after 4 hrs by liquid scintillation counting method; format: functional, organism-based
Plasmodium falciparum [30] = assay: Antimalarial activity against Plasmodium falciparum asexual blood stage form infected in human assessed as reduction in parasite growth at 250 mg, po measured on day 14 by blood smear based assay relative to control; format: functional; parameters: scale not given: the % may be the effect or the level left
Plasmodium cynomolgi = assay: Antimalarial activity against Plasmodium cynomolgi liver stage form infected in human hepatocytes; format: functional, organism-based
Plasmodium vivax [31] = assay: Antimalarial activity against schizont stage of Plasmodium vivax clinical isolate; format: functional, organism-based
Plasmodium falciparum [32] = assay: Antimalarial activity against Plasmodium falciparum asexual blood stage form infected in human assessed as reduction in parasite growth at 400 mg, po after 72 hrs by blood smear based assay relative to control; format: functional; parameters: scale not given: the % may be the effect or the level left
[33] = Half life in Wistar Hannover rat at 10 mg/kg, po by LC-MS/MS analysis; format: ADME, organism-based; conditions: in vivo
Plasmodium falciparum [34] = assay: Antimalarial activity against Plasmodium falciparum infected in human assessed as median parasite clearance time at 800 […], po and measured on day 5; format: functional
[35] = Volume of distribution at steady state in Wistar Hannover rat at 3 mg/kg, iv by LC-MS/MS analysis; format: ADME, organism-based; conditions: in vivo, read-out: Vdss
Plasmodium vivax [36] = assay: Antimalarial activity against Plasmodium vivax infected in human assessed as median parasite clearance time at 400 […], po administered for 3 consecutive day and measured on day 5; format: functional
[37] = Cardiotoxicity in human assessed as effect on QT parameters at 800 mg in presence of PPQ; format: toxicity; conditions: in vivo
Plasmodium vivax [38] = assay: Antimalarial activity against Plasmodium vivax infected in human assessed as median parasite clearance time at 800 […], po and measured on day 5; format: functional
Plasmodium falciparum [39] = assay: Antimalarial activity against Plasmodium falciparum infected in human assessed as median parasite clearance time at 400 […], po administered for 3 consecutive day and measured on day 5; format: functional
[40] = Plasma clearance in Wistar Hannover rat at 3 mg/kg, iv by LC-MS/MS analysis; format: ADME, organism-based
Plasmodium vivax [41] = assay: Antimalarial activity against Plasmodium vivax assessed as reduction in parasite growth after 72 hrs by SYBR-green based fluorescence assay; format: functional, organism-based
[42] = Half life in human infected with Plasmodium vivax at 400 mg administered for 3 consecutive days and measured up to 192 hrs; format: ADME; conditions: in vivo
[43] = Cmax in Wistar Hannover rat at 10 mg/kg, po by LC-MS/MS analysis; format: ADME, organism-based; parameters: dose 10 mg/kg, route oral; conditions: in vivo
Plasmodium falciparum [44] = assay: Antimalarial activity against Plasmodium falciparum assessed as reduction in parasite growth after 72 hrs by SYBR-green based fluorescence assay; format: functional, organism-based
[45] = Tmax in Wistar Hannover rat at 10 mg/kg, po by LC-MS/MS analysis; format: ADME, organism-based; conditions: in vivo
[46] = Oral bioavailability in Wistar Hannover rat at 10 mg/kg by LC-MS/MS analysis; format: ADME, organism-based; conditions: in vivo
[47] = Volume of distribution in human at 10 to 1200 mg and measured up to 360 hrs by LC-MS/MS method; format: ADME; conditions: in vivo
[48] = Cardiotoxicity in human assessed as effect on QT parameters at 800 mg; format: toxicity
[49] = Half life in Wistar Hannover rat at 3 mg/kg, iv by LC-MS/MS analysis; format: ADME, organism-based; conditions: in vivo
[50] = Cmax in human at 10 to 1200 mg and measured up to 360 hrs by LC-MS/MS method; format: ADME; conditions: in vivo
[51] = Half life in human infected with Plasmodium falciparum at 400 mg administered for 3 consecutive days and measured up to 192 hrs; format: ADME; conditions: in vivo
[52] = Tmax in human at 10 to 1200 mg and measured up to 360 hrs by LC-MS/MS method; format: ADME; conditions: in vivo
[53] = Half life in human at 10 to 1200 mg and measured up to 360 hrs by LC-MS/MS method; format: ADME; conditions: in vivo
[54] = Apparent clearance in human at 10 to 1200 mg and measured up to 360 hrs by LC-MS/MS method; format: ADME; conditions: in vivo, read-out: CL(app)
Cytochrome P450 3A4 = Cytochrome P450 3A4 (Homo sapiens, UniProt P08684); assay: Inhibition of CYP3A4 (unknown origin); format: ADME
[55] = Cardiotoxicity in human assessed as effect on QT parameters at 1280 mg; format: toxicity
[56] = Plasmodium falciparum, 3D7, po, 72 h

Sequence of Cytochrome P450 3A4 (P08684 whole entry): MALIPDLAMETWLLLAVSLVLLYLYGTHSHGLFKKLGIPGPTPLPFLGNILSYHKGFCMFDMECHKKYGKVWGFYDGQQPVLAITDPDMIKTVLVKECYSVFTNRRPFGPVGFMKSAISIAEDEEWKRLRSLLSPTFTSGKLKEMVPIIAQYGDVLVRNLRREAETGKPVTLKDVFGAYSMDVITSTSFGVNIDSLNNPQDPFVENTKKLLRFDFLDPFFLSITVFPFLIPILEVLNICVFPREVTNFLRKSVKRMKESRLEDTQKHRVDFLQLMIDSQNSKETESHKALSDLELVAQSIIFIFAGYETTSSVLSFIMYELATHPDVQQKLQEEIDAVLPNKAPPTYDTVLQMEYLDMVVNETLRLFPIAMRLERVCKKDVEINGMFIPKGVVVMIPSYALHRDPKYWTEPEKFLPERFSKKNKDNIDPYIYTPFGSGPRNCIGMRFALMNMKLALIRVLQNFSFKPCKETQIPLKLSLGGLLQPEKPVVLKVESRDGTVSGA
Sequence of Voltage-gated inwardly rectifying potassium channel KCNH2 (Q12809 whole entry): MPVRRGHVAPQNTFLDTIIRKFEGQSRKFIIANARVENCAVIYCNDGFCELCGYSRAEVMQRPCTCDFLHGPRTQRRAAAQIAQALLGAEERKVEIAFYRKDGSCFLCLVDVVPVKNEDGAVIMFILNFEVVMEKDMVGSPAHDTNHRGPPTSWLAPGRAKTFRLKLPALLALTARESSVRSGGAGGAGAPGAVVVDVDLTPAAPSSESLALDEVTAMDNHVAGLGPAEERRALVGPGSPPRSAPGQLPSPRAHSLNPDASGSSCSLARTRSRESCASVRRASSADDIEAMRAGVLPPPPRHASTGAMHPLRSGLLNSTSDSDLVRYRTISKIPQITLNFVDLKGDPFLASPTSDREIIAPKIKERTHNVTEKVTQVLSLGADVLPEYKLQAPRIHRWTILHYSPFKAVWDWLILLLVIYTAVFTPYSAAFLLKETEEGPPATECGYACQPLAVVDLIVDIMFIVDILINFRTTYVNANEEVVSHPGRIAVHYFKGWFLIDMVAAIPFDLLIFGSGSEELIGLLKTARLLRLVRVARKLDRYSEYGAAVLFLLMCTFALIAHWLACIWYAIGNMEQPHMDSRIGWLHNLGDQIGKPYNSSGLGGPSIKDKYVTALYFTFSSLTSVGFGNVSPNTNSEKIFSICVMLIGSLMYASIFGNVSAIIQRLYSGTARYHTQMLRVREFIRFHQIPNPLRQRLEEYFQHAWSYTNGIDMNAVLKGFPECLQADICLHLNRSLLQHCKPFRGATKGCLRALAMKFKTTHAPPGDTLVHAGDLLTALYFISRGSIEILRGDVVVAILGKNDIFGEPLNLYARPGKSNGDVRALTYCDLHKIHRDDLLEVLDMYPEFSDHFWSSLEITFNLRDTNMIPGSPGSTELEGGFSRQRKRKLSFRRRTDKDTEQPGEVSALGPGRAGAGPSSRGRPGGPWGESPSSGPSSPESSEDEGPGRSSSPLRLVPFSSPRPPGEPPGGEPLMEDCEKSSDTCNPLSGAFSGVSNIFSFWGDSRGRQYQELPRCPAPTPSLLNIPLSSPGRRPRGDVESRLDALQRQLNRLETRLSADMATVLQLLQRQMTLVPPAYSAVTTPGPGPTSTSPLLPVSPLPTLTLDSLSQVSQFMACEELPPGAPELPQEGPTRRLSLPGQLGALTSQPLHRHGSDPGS

half-life [1]: 25 h
dose excreted [2]: 36%
Drug uptake [3]: 12%
SMILES: C[C@H]1Cc2c([nH]c3cc(Cl)c(F)cc23)-c2c3cc(Cl)c(O)cc3nc(=O)n21

SMILES: O[C@@H](c1cc(C(F)(F)F)nc2c(C(F)(F)F)cccc12)[C@H]1CCCCN1
T1/2 (Plasmodium falciparum [4]): 6.2 h

SMILES: Cc1cc(Nc2ccc(S(F)(F)(F)(F)F)cc2)n2nc(C(C)(F)F)nc2n1 [DSM-265]
AUC(0-inf) [5]: 107 to 4720 µg·h/mL
half-life [6]: 10 to 45 h
clearance [7]: 0.367 to 0.9 mL/min/kg
Time (Plasmodium falciparum [8]): 85 h
Cmax [9]: 1310 to 34800 ng/mL
half-life [10]: 86 to 118 h
EC50 (Plasmodium falciparum [11]): 7 to 16 nM
MIC (Plasmodium falciparum [12]): 1.04 µg/mL (≈ 2.5 µM)
MIC (Plasmodium falciparum [13]): 13 mg/kg
ED90 (Plasmodium falciparum [13]; [56]): 3 mg/kg
T1/2 (Plasmodium falciparum [14]): 9.4 h
half-life [15]: 10 to 45 h
Activity (Plasmodium falciparum [16]): 100%
Activity (Plasmodium falciparum [17]): 100%
clearance [18]: 0.367 to 0.9 mL/min/kg
MIC (Plasmodium falciparum [19]): 6.4 mg/kg
ED90 (Plasmodium falciparum [19]; [56]): 1.5 mg/kg
EC50 (Plasmodium falciparum [20]): 0.0057 µg/mL (≈ 0.0137 µM)
Time (Plasmodium falciparum [21]): 82 h
EC50 [22]: 20 nM
AUC [23]: 16.7 to 46.9 µg·h/mL
AUC [24]: 16.7 to 46.9 µg·h/mL
Tmax [25]: 1.5 to 4 h
IC50 [26]: 1590 to 6980 nM
T1/2 (Plasmodium falciparum [27]): 5 h
EC50 (Plasmodium falciparum [28]): 918 nM
EC50 (Plasmodium vivax [29]): 529 nM
Activity (Plasmodium falciparum [30]): 88%
EC50 (Plasmodium cynomolgi): 0.13 µg/mL (≈ 0.313 µM)
EC50 (Plasmodium vivax [31]): 190 nM
Activity (Plasmodium falciparum [32]): 100%

half-life [33]: 5.7 h
Vd [35]: 29.5 L/kg
clearance [40]: 90 mL/min/kg
half-life [42]: 44 h
Cmax [43]: 139 ng/mL
Tmax [45]: 2 h
bioavailability [46]: 48%
Vd [47]: 1610 to 2410 L
half-life [49]: 6.6 h
Cmax [50]: 7.6 to 2720 ng/mL
half-life [51]: 44 h
Tmax [52]: 1 to 6 h
half-life [53]: 47 to 70 h
clearance [54]: 267 to 583 mL/min
SMILES: CC1(C)c2nc(-c3ccc(F)cc3)c(Nc3ccc(F)cc3)n2CCN1C(=O)CN [GANAPLACIDE]
Time (Plasmodium falciparum [34]): 49 h
Time (Plasmodium vivax [36]): 24 h
Activity [37]: 58.3%
Time (Plasmodium vivax [38]): 24 h
Time (Plasmodium falciparum [39]): 45 h
EC50 (Plasmodium vivax [41]): 5.5 nM
EC50 (Plasmodium falciparum [44]): 12.6 nM
Activity [48]: 87.5%

Ki (Cytochrome P450 3A4): 90 nM
SMILES: Clc1ccc2c(N3CCN(CCCN4CCN(c5ccnc6cc(Cl)ccc56)CC4)CC3)ccnc2c1 [PIPERAQUINE]
Activity [55]: 79.2%

Source: ChEMBL document CHEMBL4376815, “The Development Process for Discovery and Clinical Advancement of Modern Antimalarials” (J Med Chem, 2019)
